Experimental data published in patent publication US6838477B2, “Lactacystin analogs” (President and Fellows of Harvard College, priority 1995, dated 2005).

Columns and labels:
α-Chymotrypsin = α-Chymotrypsin (Bos taurus, UniProt P00766, DEL14-15/DEL147-148); assay: Selectivity of protease inhibition: α-chymotrypsin; type: biochemical; conditions: concentration not given
IκB-α = assay: TNF-α dependent degradation of IκB-α in Hela cells (immunoblot); type: cell-based, human; conditions: 5 μM, 1 h pretreatment, 1,000 U/ml TNF-α
Procedure: Hela cells were plated onto 6-well plates in DME plus 10% fetal calf serum (3 mls/well). Cells were then pretreated with 0.125% DMSO 40 μM […] (carbobenzoxyl-leucinyl-leucinyl-leucinal-H)(40 μM, lanes 103), or 5 μM β-lactone for one hour, followed by treatment with 1,000 U/ml TNF-α or phosphate buffered saline (PBS). Cells were harvested after 0 min, 20 min, or 40 min of further incubation at 37° C. Cells were then lysed in buffer containing NP-40 and protease inhibitors, and the proteins separated on a 10% SDS-polyacrylamide gel. The proteins were then transferred to nitrocellulose and probed with antibodies against the C-terminal 20 amino acids of human IκB-α.

p105 to p50 processing = assay: Proteasome dependent p105 to p50 processing in transfected COS cells (pulse-chase); type: cell-based, African green monkey; conditions: 1 h pretreatment, 2 hour chase
Procedure: COS cells were plated onto 100 mm dishes, then, with DEAE-Destran, either mock transfected, or transfected with 3 μg of pcDNA plasmid containing the human p105 cDNA. Forty-eight hrs after transfection, cells were pretreated for 1 hour with 0.5% DMSO, 50 μM calpain inhibitor II, 50 μM MG132, or 10 μM β-lactone. Cells were then pulse labelled with 250 uCi/plate of ^35S-methionine/cysteine for 15 minutes, and either harvested immediately or followed by a 2 hour chase with excess unlabelled methionine and cysteine. Cells were then lysed with SDS/Tris, and proteins were immunoprecipitated with anti-p50 antibodies (recognize the N-terminal half of the p105 protein). These proteins were then separated on a 10% SDS-polyacrylamide gel, which was then fixed, dried, and exposed to autoradiographic film.

[1] = biological target: 20S proteasome peptidylglutamyl-peptide hydrolyzing activity (Bos taurus, UniProt Q3MHN0)
Procedure: Experiments involving the proteasome were performed as follows: 20S proteasome (˜5 ng/μl) in 10 mM Tris-HCl, pH 7.5, 1 mM EDTA was incubated at 25° C. in the presence of lactacystin or lactacystin analogs in DMSO or MeOH [not exceeding 5% (v/v)]. Aliquots for fluorescence assay were removed at various times following addition of compound and diluted in 10 mM Tris-HCl, pH 7.5, 1 mM EDTA containing fluorogenic peptide substrates (100 μM final). Suc-LLVY-AMC, Cbz-GGR-βNA and […] (AMC=7-amido-4-methylcoumarin; βNA=β-naphthylamide) were used to assay for the chymotrypsin-like, trypsin-like and peptidylglutamyl-peptide hydrolyzing activities, respectively.
Fluorescent emission at 460 nm with excitation at 380 nm was measured for AMC-containing substrates, and emission at 410 nm with excitation at 335 nm was measured for βNA-containing substrates. The fluorescence assays were conducted at 25° C., each experiment was performed at least three times, and values represent mean±standard deviation.
The reversibility of the inhibitory effects was assessed by measuring residual peptidase activity after removal of excess inhibitor by extensive serial dilution/ultrafiltration.

CC(C)[C@H](O)[C@@]12NC(=O)[C@H](C)[C@@H]1OC2=O [β-Lactone, clasto-lactacystin β-lactone]
inhibition of α-chymotrypsin activity (α-Chymotrypsin): do not inhibit
degradation of IκB after TNF induction (IκB-α): blocks degradation
phosphorylated form of IκB (IκB-α): stabilizes the phosphorylated form
processing of p105 to p50 (level of p50) (p105 to p50 processing; 10 μM): only a slight effect
processing of p105 to p50 (appearance of p50) (p105 to p50 processing; 50 μM): complete inhibition
κassoc = κobs/[I], Peptidylglutamyl-peptide hydrolyzing activity (Cbz-LLE-βNA) ([1]; compound 50 μM, 25° C.): 59 ± 17 s^−1M^−1
PGPH activity inhibited faster than by lactacystin ([1]; relative to lactacystin): 15-20 times
reversibility of inhibition of PGPH activity ([1]; residual activity after removal of excess inhibitor by serial dilution/ultrafiltration): reversibly
